Laboratory results taken from US8022225B2, “Triazole derivative” (Taisho Pharmaceutical Co., Ltd, priority 2004, dated 2011).

Tests used:
human Edg-1(S1P1) [1] = molecular target: T1, human Edg-1(S1P1) (Homo sapiens, UniProt P21453); test: Cell system binding test: inhibition of [3H]-S1P binding to Edg-1(S1P1) gene transferred HEK-293 cells; conditions: 10 μM compound, [3H]-S1P 10 nM, read-out: Cell system binding test % inhibition (10 μM)
T1 construct: expressed in transfected cells; host or cells: HEK-293

human Edg-1(S1P1) [2] = molecular target: T1, human Edg-1(S1P1); test: Membrane system binding test: inhibition of [33P]-S1P binding to the membrane fraction of Edg-1(S1P1) gene transferred HEK-293 cells; conditions: 10 μM compound; [33P]-S1P 0.1 nM; membrane fraction of Edg-1(S1P1) gene transferred HEK-293 cells; read-out: Membrane system binding test % inhibition (10 μM)
Procedure, shortened: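 Membranes from HEK-293 cells transfected with Edg-1(S1P1) incubated 1 h at 30 °C with 0.1 nM [^33P]-S1P and compound at 10^−5 M (0.1% DMSO), pH 7.4 buffer with fatty acid-free BSA. Filter-bound radioactivity counted; inhibition rate calculated against no-compound binding, with untransfected-cell background subtracted.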

T1 sequence (P21453 whole entry): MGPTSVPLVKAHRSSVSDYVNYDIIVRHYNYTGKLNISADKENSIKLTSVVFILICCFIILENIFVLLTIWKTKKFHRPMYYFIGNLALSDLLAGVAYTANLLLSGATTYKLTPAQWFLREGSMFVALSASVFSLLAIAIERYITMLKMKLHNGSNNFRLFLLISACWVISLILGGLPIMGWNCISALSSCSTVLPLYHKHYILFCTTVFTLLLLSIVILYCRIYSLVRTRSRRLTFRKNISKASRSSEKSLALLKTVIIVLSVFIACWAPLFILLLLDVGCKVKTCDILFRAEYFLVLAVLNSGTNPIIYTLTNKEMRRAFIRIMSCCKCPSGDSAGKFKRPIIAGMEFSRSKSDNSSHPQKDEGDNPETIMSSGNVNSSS

| Structure (SMILES) | inhibition at 10 µM (human Edg-1(S1P1) [1]) | inhibition at 10 µM (human Edg-1(S1P1) [2]) |
| --- | --- | --- |
| CCn1c(OC)nnc1[C@@H](C)NS(=O)(=O)c1ccc(Br)c(Br)c1 [Compound 272] | 102% | 94.3% |
| CCn1c(OC)nnc1[C@@H](C)NS(=O)(=O)c1cc(C)ccc1OC [Compound 273] | 94.3% | 68.4% |
| CCn1c(OC)nnc1[C@@H](C)NS(=O)(=O)c1cccc(OC(F)(F)F)c1 [Compound 275] | 99.4% | 71.9% |
| CCn1c(OC)nnc1[C@@H](C)NS(=O)(=O)c1ccc(C#N)cc1 [Compound 277] | 99.7% | 51.4% |
| CCn1c(OC)nnc1[C@@H](C)NS(=O)(=O)c1ccc(C(C)C)cc1 [Compound 282] | 92.7% | 48.1% |
| CCCCCc1ccc(S(=O)(=O)N[C@H](C)c2nnc(OC)n2CC)cc1 [Compound 284] | 88% | 41.5% |
| CCn1c(OC)nnc1[C@@H](C)NS(=O)(=O)Cc1cc(Cl)cc(Cl)c1 [Compound 292] | 96.7% | 51.4% |
| CCn1c(OC)nnc1[C@@H](C)NS(=O)(=O)c1cccc(F)c1 [Compound 299] | 94.5% | 44.4% |
| CCn1c(OC)nnc1[C@@H](C)NS(=O)(=O)c1cc(Br)ccc1Br [Compound 303] | 97.7% | 56.1% |
| CCn1c(OC)nnc1[C@@H](C)NS(=O)(=O)c1ccc(Br)cc1Br [Compound 306] | 94.5% | 62.8% |
| CCn1c(OC)nnc1[C@@H](C)NS(=O)(=O)c1ccc(F)c(C#N)c1 [Compound 307] | 96.2% | 68% |
| CCn1c(OC)nnc1[C@@H](C)NS(=O)(=O)c1cc(C)cc(C)c1 [Compound 308] | 95.5% | 68.1% |
| CCn1c(OC)nnc1[C@@H](C)NS(=O)(=O)c1ccc(OC(F)F)cc1 [Compound 309] | 93.2% | 46.5% |
| CCn1c(OC)nnc1[C@@H](C)NS(=O)(=O)c1cccc(OC(F)F)c1 [Compound 310] | 98.5% | 78.8% |
| CCn1c(OC)nnc1[C@@H](C)NS(=O)(=O)c1ccc(Br)c(C)c1 [Compound 314] | 102% | 100% |
| CCn1c(OC)nnc1[C@@H](C)NS(=O)(=O)c1ccc(C)c(C)c1 [Compound 319] | 93.4% | 89.9% |
| CCn1c(OC)nnc1[C@@H](C)NS(=O)(=O)c1ccc(F)c(C(F)(F)F)c1 [Compound 321] | 100% | 99.7% |

The next lines start with the values.

| inhibition at 10 µM (human Edg-1(S1P1) [1]) | inhibition at 10 µM (human Edg-1(S1P1) [2]) | Structure (SMILES) |
| --- | --- | --- |
| 102% | 104% | CCn1c(OC)nnc1[C@@H](C)NS(=O)(=O)c1ccc(Cl)c(Cl)c1 [Compound 274] |
| 97.1% | 63.9% | CCn1c(OC)nnc1[C@@H](C)NS(=O)(=O)c1ccc(F)c(F)c1F [Compound 285] |
| 97.5% | 57.4% | CCn1c(OC)nnc1[C@@H](C)NS(=O)(=O)c1cc(F)ccc1F [Compound 286] |
| 100% | 80.1% | CCn1c(OC)nnc1[C@@H](C)NS(=O)(=O)c1ccc(F)c(F)c1 [Compound 287] |
| 103% | 54.9% | CCn1c(OC)nnc1[C@@H](C)NS(=O)(=O)c1ccc(Br)cc1F [Compound 288] |
| 102% | 63.6% | CCn1c(OC)nnc1[C@@H](C)NS(=O)(=O)c1cc(F)c(Cl)cc1F [Compound 289] |
| 98.7% | 57.7% | CCn1c(OC)nnc1[C@@H](C)NS(=O)(=O)c1cc(F)c(F)cc1F [Compound 302] |
| 97.6% | 52.4% | CCn1c(OC)nnc1[C@@H](C)NS(=O)(=O)c1cc(F)cc(F)c1 [Compound 311] |
| 95.9% | 50.7% | CCn1c(OC)nnc1[C@@H](C)NS(=O)(=O)c1ccc(Cl)cc1F [Compound 312] |
| 100% | 93.2% | CCn1c(OC)nnc1[C@@H](C)NS(=O)(=O)c1cc(F)c(F)c(F)c1 [Compound 313] |
| 100% | 85% | CCn1c(OC)nnc1[C@@H](C)NS(=O)(=O)c1ccc(C)c(F)c1 [Compound 315] |
| 97.2% | 95.8% | CCn1c(OC)nnc1[C@@H](C)NS(=O)(=O)c1ccc(Br)c(F)c1 [Compound 317] |
| 93.5% | 47.9% | CCn1c(OC)nnc1[C@@H](C)NS(=O)(=O)c1cc(C)ccc1F [Compound 320] |
| 95.9% | 43.5% | CCn1c(OC)nnc1[C@@H](C)NS(=O)(=O)c1cccc(Cl)c1F [Compound 322] |
